Laboratory results as given in patent publication US3965151A, “Intermediates for tricyclic benzodiazepines” (Hoffmann-La Roche Inc., priority 1975, dated 1976).

What was measured:
Type in all cases: in vivo
[1] = system: Cats; assay: Unanesthetized Cat (minimum symptoms, usually ataxia; muscle relaxant activity); details: Felis catus, oral, read-out: Unanesthetized Cat MED
Procedure: Cats are treated orally and observed for minimum symptoms--usually ataxia. One cat is used at a dose of 50 mgm/kgm. If activity is present, up to three cats/dose are used. Results are given as minimum effective dose. This test is useful in determining muscle relaxant activity.

[2] = system: mice; assay: Foot Shock (blocking of foot shock-induced fighting in pairs of mice); details: oral, 1 hour prior to second shocking, three out of three pairs blocked from fighting
Procedure: This test is a screen for compounds having muscle relaxant and/or anti-anxiety (tranquilizer) activity. A pair of mice is confined under a 1 liter beaker placed on a grid which presents shock to the feet. At least five fighting episodes are elicited in a 2-minute period. Pairs of mice are marked and pretreated by oral dosage 1 hour prior to a second shocking. Logarithmic-dose intervals are utilized up to a maximum of 100 mg/kgm. At the 100 per cent blocking dose, three out of three pairs must be blocked from fighting.

[3] = system: mice; assay: Antimetrazol (protection from metrazol-induced convulsive seizures); details: Mus musculus, oral, 1 hour before metrazol ~125 mg/kg s.c., 50 per cent of animals protected from convulsive seizures, read-out: Antimetrazole ED50
Procedure: This test determines anticonvulsant and/or sedative activity of compounds in mice. The test compound is administered orally to groups of four mice at various dose levels. One hour later, metrazol (at a dose level previously determined to be sufficient to induce convulsive seizures in all test animals ~125 mg/kg.) is administered subcutaneously and the animals are observed for protection from convulsive seizures. Results are recorded as the number of animals protected against convulsions. The dose at which 50 per cent of the animals are protected from convulsive seizures is expressed as the ED50.

[4] = system: mice; assay: Inclined Screen (paralyzing effects, muscle relaxant and/or sedative activity); details: Mus musculus, 4 h; male mice, at least four hours observation; dose expected to cause 50 per cent of mice to slide off the screen; read-out: Inclined Screen PD50
Procedure: The test is useful in determining muscle relaxant and/or sedative activity. Groups of six male mice are given the test drug (maximum dose of 500 mg/kg.) and then are left on the inclined screen at least four hours for observation of paralyzing effects severe enough to cause them to slide off the screen. If activity is observed, additional doses are tested until at least two are reached at which some, but not all the animals slide off the screen. Doses at which mice fall off the screen due to toxicity or excitation are not included in the calculation of PD50. The PD50 is determined from a graph on which dose is plotted against per cent of mice paralyzed. This PD50 value is defined as the dose in mg/kg. which can be expected to cause 50 per cent of mice to slide off the screen.

Q: For `O=C1CN2CCOC2(c2ccccc2F)c2cc(Cl)ccc2N1CCO` (stereo not shown) [Compound B, 10-Chloro-11b-(2-fluorophenyl)-7-(2-hydroxyethyl)-2,3,5,11b-tetrahydrooxazolo[3,2-d][1,4]benzodiazepin-6(7H)-one], which minimal effective dose [1] is on record?
A: 5 mg/kg

Q: What about the “Footshock 100% Blocking Dose Level” value [2] of the same molecule?
A: 4 mg

Q: What about the ED50 [3] of the same molecule?
A: 2.03 mg/kg

Q: And the ED50 [4]?
A: 15 mg/kg

Q: For `O=C1CN2CCOC2(c2ccccc2)c2cc(Cl)ccc2N1CCO` (stereo not shown) [Compound A, 10-chloro-7-(2-hydroxyethyl)-2,3,5,11b-tetrahydro-11b-phenyloxazolo[3,2-d][1,4]benzodiazepin-6-(7H)-one], which minimal effective dose [1] is on record?
A: 5 mg/kg

Q: And the “Footshock 100% Blocking Dose Level” value [2]?
A: 20 mg

Q: What about the ED50 [4] of the same molecule?
A: 50 mg/kg
